What all share (type): in vivo
Test [1] deals with Erysiphe graminis f. sp. tritici. The experiment in a line: Test A: wheat powdery mildew, preventive spray on wheat seedlings, visual disease rating. As to conditions: 40 ppm (compound number followed by *); for pest or weed control at 40 ppm: Blumeria graminis, 192 h. The method in brief:
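Acetone/water (50/50) suspension with 250 ppm surfactant sprayed to run-off on wheat seedlings (200 ppm ≈ 500 g/ha); inoculated next day with E. graminis spore dust. Incubated 8 days at 20° C, then visually rated 0–100% disease control versus untreated controls; tests at 200 ppm or 40 ppm.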

For test [2], the system named is Puccinia recondite f. sp. tritici. The experiment in a line: Test B: wheat leaf rust, preventive spray on wheat seedlings, visual disease rating. Particulars: 40 ppm (compound number followed by *); for pest or weed control at 40 ppm: 192 h. Put shortly: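 Wheat seedlings were sprayed to run-off with compound suspension, 200 ppm (≈500 g/ha) or 40 ppm where marked, containing surfactant in acetone/water. Inoculation with Puccinia recondita spores followed one day later, then 24 h in saturated humidity at 20° C and 7 days at 20° C. Disease control was rated visually, 0–100% versus controls.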

Test [3] concerns Septoria tritici. The experiment in a line: Test C: wheat leaf blotch, preventive spray on wheat seedlings, visual disease rating. Particulars: 40 ppm (compound number followed by *); for pest or weed control at 40 ppm: Zymoseptoria tritici, 504 h. The method in brief:
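Wheat seedlings sprayed to run-off with compound in acetone/water plus 250 ppm surfactant at 200 ppm (≈500 g/ha), or 40 ppm where marked; inoculated with Septoria tritici next day. Held saturated at 20 °C for 48 h, then 19 days at 20 °C; disease control rated visually 0–100 versus controls.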

In test [4] the test system is Septoria nodorum. The experiment in a line: Test D: wheat glume blotch, preventive spray on wheat seedlings, visual disease rating. As to conditions: 40 ppm (compound number followed by *); for pest or weed control at 40 ppm: Parastagonospora nodorum, 216 h. The method in brief:
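Compounds in 3% acetone, then 50/50 acetone–water with 250 ppm Trem 014, sprayed to run-off at 200 ppm (500 g/ha; some at 40 ppm) one day before spore inoculation. Held 48 h saturated at 20 °C, then 7 days at 20 °C; visual rating as % disease control vs untreated (0–100).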

For test [5], the system named is Alternaria solani. The experiment in a line: Test E: tomato early blight, preventive spray on tomato seedlings, visual disease rating. Particulars: 40 ppm (compound number followed by *); for pest or weed control at 40 ppm: Alternaria solani, 168 h. Put shortly: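 Seedlings sprayed to run-off with compound in acetone/water plus 250 ppm Trem 014 (200 ppm ≈ 500 g/ha), inoculated with spores next day. Held 48 h saturated at 27 °C, then 5 days at 20 °C; visual rating 0–100% disease control relative to controls.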

Test [6] deals with Botrytis cinerea. The experiment in a line: Test F: tomato botrytis, preventive spray on tomato seedlings, visual disease rating. Particulars: 40 ppm (compound number followed by *); for pest or weed control at 40 ppm: Botrytis cinerea, 120 h. Put shortly: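 Tomato seedlings sprayed to run-off with compound suspended in acetone/water (50/50) plus 250 ppm Trem 014, at 200 ppm (≈500 g/ha) or 40 ppm where marked. Inoculated next day with B. cinerea spores, 48 h saturated atmosphere at 20 °C, then 3 days at 24 °C. Visual rating, 0–100% disease control relative to controls.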

SMILES strings stand for the structures.

For the molecule `CCC(O)c1cnc(C)c(-c2c(F)ccc(OC)c2F)c1-c1cc(OC)cc(OC)c1` (stereo not drawn) [Compound 115], the “Test A rating (% disease control)” value in test [1] was 93%. Also, the “Test B rating (% disease control)” value in test [2] came to 96%. Besides, the “Test C rating (% disease control)” value in test [3] came out at 98%. The “Test D rating (% disease control)” value in test [4] is reported as 0%. In test [5], the “Test E rating (% disease control)” value is reported as 99%. In test [6], the “Test F rating (% disease control)” value is recorded as 98%.

Consider `COc1cc(OC)cc(-c2c(C(C)O)cnc(C)c2-c2c(F)ccc(OC)c2F)c1` (stereo not drawn) [Compound 116], for which, in test [1], the “Test A rating (% disease control)” value was 94%. In addition, the “Test B rating (% disease control)” value in test [2] came to 89%. For the same molecule, the “Test C rating (% disease control)” value in test [3] is given as 95%. Besides, the “Test D rating (% disease control)” value in test [4] worked out at 0%. Besides, the “Test E rating (% disease control)” value in test [5] is on record as 99%. In addition, the “Test F rating (% disease control)” value in test [6] stood at 99%.

Turning to `COc1cc(OC)c(Cl)c(-c2c(C(C)=O)cnc(C)c2-c2c(F)cc(F)cc2F)c1` [Compound 118], the “Test A rating (% disease control)” value in test [1] is 100%. Moreover, the “Test B rating (% disease control)” value in test [2] was 100%. Further, in test [3], the “Test C rating (% disease control)” value came out at 96%. The “Test D rating (% disease control)” value in test [4] is reported as 0%. For the same molecule, the “Test E rating (% disease control)” value in test [5] stood at 99%. Further, the “Test F rating (% disease control)” value in test [6] was found to be 100%.

Turning to `COc1cc(OC)c(Cl)c(-c2c(C(C)(C)O)cnc(C)c2-c2c(F)cc(F)cc2F)c1` [Compound 119], in test [1], the “Test A rating (% disease control)” value is 99%. The “Test B rating (% disease control)” value in test [2] was found to be 100%. Besides, the “Test C rating (% disease control)” value in test [3] was found to be 98%. Further, in test [4], the “Test D rating (% disease control)” value is reported as 98%. For the same molecule, in test [5], the “Test E rating (% disease control)” value came to 100%. Moreover, in test [6], the “Test F rating (% disease control)” value is listed as 100%.

In the case of `COc1cc(OC)cc(-c2c(C(N)=O)cnc(C)c2-c2c(F)cc(F)cc2F)c1` [Compound 120], the “Test A rating (% disease control)” value in test [1] is listed as 0%. Further, in test [2], the “Test B rating (% disease control)” value was 91%. The “Test C rating (% disease control)” value in test [3] is 87%. For the same molecule, the “Test D rating (% disease control)” value in test [4] was found to be 0%. Moreover, the “Test E rating (% disease control)” value in test [5] was 47%. Besides, in test [6], the “Test F rating (% disease control)” value came to 79%.

As to `COc1cc(OC)cc(-c2c(-c3ccccc3)cnc(C)c2-c2c(F)cc(F)cc2F)c1` [Compound 121, 4-(3,5-dimethoxyphenyl)-2-methyl-5-phenyl-3-(2,4,6-trifluorophenyl)pyridine], the pest or weed control at 40 ppm came out at 99% in test [1]; 100% in test [2]; 99% in test [3]; 94% in test [4]; 99% in test [5]; 100% in test [6].

In the case of `COc1cc(OC)cc(-c2c(Br)cnc(C)c2-c2c(F)cc(F)cc2F)c1` [Compound 122, 5-bromo-4-(3,5-dimethoxyphenyl)-2-methyl-3-(2,4,6-trifluorophenyl)pyridine], the pest or weed control at 40 ppm is 98% in test [1]; 99% in test [2]; 99% in test [3]; 0% in test [4]; 0% in test [5]; 100% in test [6].

`COc1cc(OC)cc(-c2c(Cn3cc(C#N)cn3)cnc(C)c2-c2c(F)cc(F)cc2F)c1` [Compound 123]: the “Test A rating (% disease control)” value in test [1] is 0%. Moreover, in test [2], the “Test B rating (% disease control)” value is recorded as 0%. Further, the “Test C rating (% disease control)” value in test [3] was 53%. Moreover, the “Test D rating (% disease control)” value in test [4] turned out to be 0%. For the same molecule, the “Test E rating (% disease control)” value in test [5] was 0%. The “Test F rating (% disease control)” value in test [6] came out at 69%.

`COc1cc(OC)cc(-c2c(C(C)C#N)cnc(C)c2-c2c(F)cc(F)cc2F)c1` (stereo not drawn) [Compound 125]: the “Test A rating (% disease control)” value in test [1] came out at 96%. Besides, in test [2], the “Test B rating (% disease control)” value was 99%. Moreover, the “Test C rating (% disease control)” value in test [3] came to 96%. Moreover, the “Test D rating (% disease control)” value in test [4] is reported as 90%. Further, in test [5], the “Test E rating (% disease control)” value was found to be 99%. For the same molecule, the “Test F rating (% disease control)” value in test [6] came out at 100%.

Source of the values: patent publication US20110092544A1, “FUNGICIDAL PYRIDINES” (E.I. DU PONT DE nemours and company, priority 2008, published 2011).
